Residue numbers refer to the chain shown, from its start.
Columns and labels:
CYP1B1 S127A = target: T1, CYP1B1 S127A (Homo sapiens, UniProt Q16678, S127A)
T1 sequence (Q16678 1-543 S127A): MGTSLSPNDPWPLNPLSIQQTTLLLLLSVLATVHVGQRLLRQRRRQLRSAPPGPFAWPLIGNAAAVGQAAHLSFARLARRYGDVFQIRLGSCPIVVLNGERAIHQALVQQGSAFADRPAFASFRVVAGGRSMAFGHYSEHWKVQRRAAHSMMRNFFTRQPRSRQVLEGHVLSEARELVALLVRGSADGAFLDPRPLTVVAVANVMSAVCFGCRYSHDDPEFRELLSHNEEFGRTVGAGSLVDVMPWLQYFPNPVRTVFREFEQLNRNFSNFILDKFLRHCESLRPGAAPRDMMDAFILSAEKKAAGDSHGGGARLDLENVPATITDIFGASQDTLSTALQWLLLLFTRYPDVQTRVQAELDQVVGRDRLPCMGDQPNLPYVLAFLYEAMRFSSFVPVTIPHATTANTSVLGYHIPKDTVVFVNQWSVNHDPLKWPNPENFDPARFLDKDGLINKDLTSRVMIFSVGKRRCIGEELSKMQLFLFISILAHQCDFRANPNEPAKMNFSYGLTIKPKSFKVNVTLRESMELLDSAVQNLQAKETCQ
Description: (§1) Site directed mutagenesis was used to probe the importance of specific active-site contacts identified through the structural assessment (Fig. 3a, b) and simulations. In all cases, conservative mutations were made to maintain polar or hydrophobic character and approximate size. The aromatic residues that frame the inhibitor binding site, Phe143 and Phe231, were mutated to Leu to determine the importance of the π interactions. In addition, the Ser127 residue, located in the upper corner of the active site on the B-C loop, was chosen for mutation based on the simulations. This amino acid transiently contacts the inhibitors, but also forms a hydrogen bond with Asp326 of the I-helix, and thus may impact the position of this helix with regards to the B-C loop. […] Rather than directly mutating these residues in the I-helix, neighboring residues Gln332 and Asp333 were targeted, with the hope of interrupting amino acid interactions that position the helix within the active site.
(§2) The ratio of IC50 values for the WT vs. the mutant are shown in Fig. 3c and reflects the importance of the specific contact; the log of the value is used to aid in visualization.
(§3) Cell lines were seeded onto Geltrex coated 96-well plates at 40,000 cells/well, and grown overnight in DMEM media containing 1 μg/mL tetracycline. The media was then replaced with Opti-MEM supplemented with 2% FBS and 1 μg/mL tetracycline. Compounds were serially diluted in Opti-MEM supplemented with 2% FBS and 1 μg/mL tetracycline and an equal volume of compound added to the cells (n = 3). Following a 1 h incubation, resorufin ethyl ether (REE; for CYP1B1 and 1A1) or dibenzylfluorescein (DBF; for 19A1) was added to the cells for a total concentration of 5 μM for REE and 1 μM for DBF. […] Dose–response curves were generated in Prism and normalized using the no-compound control (set as 100% activity) and the no-cell control (set as 0% activity; this value in the raw data reflects the background fluorescence of the dye alone).

CYP1B1 F134L = target: T2, CYP1B1 F134L (Homo sapiens, UniProt Q16678, F134L)
T2 sequence (Q16678 1-543 F134L): T1 sequence (Q16678 1-543 S127A) with A127S, F134L
Description: as §1, §2, §3

CYP1B1 S269A = target: T3, CYP1B1 S269A (Homo sapiens, UniProt Q16678, S269A)
T3 sequence (Q16678 1-543 S269A): T1 sequence (Q16678 1-543 S127A) with A127S, S269A
Description: as §1, §2, §3

CYP1B1 Q332E = target: T4, CYP1B1 Q332E (Homo sapiens, UniProt Q16678, Q332E)
T4 sequence (Q16678 1-543 Q332E): T1 sequence (Q16678 1-543 S127A) with A127S, Q332E
Description: as §1, §2, §3

CYP1B1 D333N = target: T5, CYP1B1 D333N (Homo sapiens, UniProt Q16678, D333N)
T5 sequence (Q16678 1-543 D333N): T1 sequence (Q16678 1-543 S127A) with A127S, D333N
Description: as §1, §2, §3

For `O=c1cc(-c2ccccc2)oc2c1ccc1ccccc12` [ANF, α-naphthoflavone], the “logSI S127A” value (CYP1B1 S127A) was -1.15, the “logSI F134L” value (CYP1B1 F134L) was -0.301 and the “logSI S269A” value (CYP1B1 S269A) was 0. For the same molecule, the “logSI Q332E” value (CYP1B1 Q332E) was 0.906 and the “logSI D333N” value (CYP1B1 D333N) was 1.497.
